Here are results for two compounds from patent publication US20150297534A1, “METHODS AND COMPOSITIONS FOR THE MEDIATION OF NSAID-INDUCED REACTIONS” (NuBioPharma, LLC, priority 2014, published 2015).

Molecules are shown by their SMILES.

Data set [1] concerns PGE2 formation in human whole blood. The experiment in a line: PGE2 formation in LPS-stimulated human whole blood (in vitro incubation). Format: cell-based. To be noted: LPS 10 µg/ml, 18 hours; for inhibition of PGE2 formation: alone or in combination; for inhibition of PGE2 compared with 6-keto PGF1α formation (FIG. 1): varied concentrations, compound alone. On the procedure:
Determination of PGE2 and 6-keto PGF1α Formation in Human Whole Blood: Peripheral blood from healthy adult volunteers, who had not received any medication for at least 2 weeks under informed consent, was obtained by venipuncture and collected in a vacutainer blood collection tube containing heparin. Aliquots of whole blood (0.8 ml) were mixed with aspirin (50 μM) and volume was adjusted to 1 ml with PBS containing 6 mM glucose. The blood was incubated with the indicated compounds for 5 mins. at room temperature; and then stimulated with lipopolysaccharide (10 μg/ml) for 18 h at 37° C. Prostanoid formation was stopped on ice and the samples were centrifuged (2300 g, 10 min, 4° C.), and 6-keto PGF1α was quantified in the supernatant using High Sensitivity ELISA Kit for 6-keto PGF1α according to the manufacturer's protocols (Calbiochem). PGE2 was determined after solid-phase extraction, RP-HPLC and an ELISA according to the procedures of Koeberle et al. [J Pharmacol Exp Ther. 2008; 326(3):975-82].
Synergistic interaction between compounds was analyzed by the sensitization method (Harvey, R. J., J. Theor. Biol. 74: 411-437, 1978). Briefly, sensitization is measured as the ratio between observed and expected inhibition of PGE2. The expected level of activity (Ae) is calculated by Aβ=1−((1−A1)*(1−A2)) (^3) where A1 and A2 are the activities of drugs 1 and 2 alone at the concentration used in the combination (Harvey, R. J., J. Theor. Biol. 74: 411-437, 1978).

The next data set concerns IL-1β. The experiment in a line: IL-1β in LPS-stimulated human whole blood (in vitro incubation). Format: cell-based. To be noted: whole human blood stimulated with LPS (FIG. 5); read-out: suppression of IL-1 beta, IC50. On the procedure: (§1) Determination of Inflammatory Cytokines (IL-1β & TNF-α) in Human Whole Blood: Blood from healthy adult volunteers was obtained in vacutainer blood collection tubes containing heparin as described above. Aliquots of whole blood (0.2 ml) were diluted with serum-free medium (RPMI-SF) in 24-well culture plates and volume was adjusted to 1 ml. The blood was incubated with the indicated compounds for 5 minutes at room temperature, and then stimulated with lipopolysaccharide (10 μg/ml) for 6 h at 37° C. with 5% CO2. Reaction was stopped on ice, the samples were centrifuged (2300 g, 10 mins., 4° C.), and of Inflammatory Cytokines IL-1β& TNF-α were estimated in the supernatant using High Sensitivity ELISA Kits according to the manufacturer's protocols (R&D Biosystems).

Data set [2] concerns TNF-α. Nature of the data set: TNF-α in LPS-stimulated human whole blood (in vitro incubation). Format: cell-based. To be noted: whole human blood stimulated with LPS (FIG. 4). As for the experimental part: as §1
A further data set concerns gastric ulcers. To be noted: ibuprofen 2400 mg/day, daily use for 24 weeks, arthritis patients; cited from earlier work.
Data set [3] concerns TNF-α. The experiment in a line: Healthy volunteer study: TNF-α in LPS-stimulated blood after ibuprofen dosing. Format: in vivo, human. To be noted: volunteer 1; single oral dose 400 mg ibuprofen; blood 65 minutes after dosing, LPS stimulation (FIG. 3). As for the experimental part: as §1
Human Healthy Volunteer Clinical Study: Volunteers with acute or chronic diseases, medical history of gastrointestinal ulcers or allergy to NSAIDs were not included. Volunteers were not permitted to receive any NSAIDs for 2 weeks before and throughout the duration of the study. The study was conducted in an open-label, crossover design with a seven-day washout period between each treatment. Volunteer 1 was given a single oral dose of 400 mg of ibuprofen (Baby Advil Suspension) with 240 mL of water. Administration of the study medication was supervised by the investigator to ensure that the drug had been swallowed. […]

The subject of another data set is PGE2. The experiment in a line: Healthy volunteer crossover study: PGE2 production in LPS-stimulated blood after oral dosing. Format: in vivo, human. To be noted: LPS stimulation. On the procedure:
Peripheral blood from healthy adult volunteers, who had not received any medication for at least 2 weeks under informed consent, was obtained by venipuncture and collected in a vacutainer blood collection tube containing heparin. Aliquots of whole blood (0.8 ml) were mixed with aspirin (50 μM) and volume was adjusted to 1 ml with PBS containing 6 mM glucose. The blood was incubated with the indicated compounds for 5 mins. at room temperature; and then stimulated with lipopolysaccharide (10 μg/ml) for 18 h at 37° C. […] PGE2 was determined after solid-phase extraction, RP-HPLC and an ELISA according to the procedures of Koeberle et al. [J Pharmacol Exp Ther. 2008; 326(3):975-82]. Human Healthy Volunteer Clinical Study: Volunteers with acute or chronic diseases, medical history of gastrointestinal ulcers or allergy to NSAIDs were not included. Volunteers were not permitted to receive any NSAIDs for 2 weeks before and throughout the duration of the study. The study was conducted in an open-label, crossover design with a seven-day washout period between each treatment. […] Administration of the study medication was supervised by the investigator to ensure that the drug had been swallowed. […] An aliquot of blood was used for determination of PGE2 and TNF-α after LPS stimulation as described above. […] A Blood sample (6 ml), immediately prior to dosing and at 105 minutes after dosing was obtained as described above. […] A blood sample (6 ml), immediately prior to dosing and at 105 min after dosing was obtained as described above.

A further data set relates to 6-keto PGF1α. The experiment in a line: Healthy volunteer crossover study: 6-keto PGF1α production in LPS-stimulated blood after oral dosing. Format: in vivo, human. To be noted: single oral dose, blood 105 min after dosing, LPS stimulation, SE in parentheses. On the procedure:
Peripheral blood from healthy adult volunteers, who had not received any medication for at least 2 weeks under informed consent, was obtained by venipuncture and collected in a vacutainer blood collection tube containing heparin. Aliquots of whole blood (0.8 ml) were mixed with aspirin (50 μM) and volume was adjusted to 1 ml with PBS containing 6 mM glucose. The blood was incubated with the indicated compounds for 5 mins. at room temperature; and then stimulated with lipopolysaccharide (10 μg/ml) for 18 h at 37° C. […] PGE2 was determined after solid-phase extraction, RP-HPLC and an ELISA according to the procedures of Koeberle et al. [J Pharmacol Exp Ther. 2008; 326(3):975-82]. […] A Blood sample (6 ml), immediately prior to dosing and at 105 minutes after dosing was obtained as described above. […] A blood sample (6 ml), immediately prior to dosing and at 105 min after dosing was obtained as described above.

Data set [4] in a line: Healthy volunteer study: total plasma concentration of ibuprofen by HPLC. In kind it is in vivo, human. To be noted: SE in parentheses; for concentration at 105 min: plasma. As for the experimental part:
Human Healthy Volunteer Clinical Study: Volunteers with acute or chronic diseases, medical history of gastrointestinal ulcers or allergy to NSAIDs were not included. Volunteers were not permitted to receive any NSAIDs for 2 weeks before and throughout the duration of the study. The study was conducted in an open-label, crossover design with a seven-day washout period between each treatment. Volunteer 1 was given a single oral dose of 400 mg of ibuprofen (Baby Advil Suspension) with 240 mL of water. […] A Blood sample (6 ml), obtained via an indwelling catheter inserted into an arm vein, and was collected into a tube containing heparin immediately prior to an ibuprofen dosing and at the following times thereafter: 65, 105, and 115 mins. after dosing. An aliquot of blood was used for determination of PGE2 and TNF-α after LPS stimulation as described above. Plasma was separated by centrifugation at 1000 g for 10 minutes at room temperature from the remaining blood for ibuprofen assay. After seven days (washout period), the same volunteer was given a single oral dose of 100 mg ibuprofen (Baby Advil Suspension) with 240 mL of water. A 6.0 mL blood sample for the determination of PGE2 and TNF-α after LPS stimulation and for the estimation of plasma levels of ibuprofen were drawn into tubes through an indwelling cannula before dosing and at 75, 125, and 155 mins. after dosing.
Total plasma concentrations of ibuprofen were determined by high-performance liquid chromatography (HPLC.) system that consisted of a Model 510 pump, a Model 486 variable wavelength UV detector and a computer loaded with the Millenium software, all from Waters Associates (Milford, Mas). To 100 μl of plasma was added 100 μl of internal standard solution (naproxen 10 μg/ml in 65% methanol and 1% acetic acid) followed by […]. Following vortex-mixing (30 s) and centrifugation (1000 g, 5 mins.), the supernatant was evaporated to dryness, and reconstituted in 100 μl of 65% methanol and 1% acetic acid immediately prior to injection onto a reversed phase column (ρBondaPak C18) eluted with methanol:1% acetic acid (65:35), pumped at 1.0 ml min. The column eluent was monitored at 210 nm. The height of the ibuprofen peak was divided by the height of the internal standard peak and this ratio was used to determine ibuprofen concentrations from a standard curve of ibuprofen.
A Blood sample (6 ml), immediately prior to dosing and at 105 minutes after dosing was obtained as described above. Production of PGE2, 6-keto PGF1α and TNF-α after LPS stimulation and plasma concentrations were determined as described above.
A blood sample (6 ml), immediately prior to dosing and at 105 min after dosing was obtained as described above. Production of PGE2, 6-keto PGF1α and TNF-α after LPS stimulation and plasma concentrations were determined as described above.

Where [5] appears, read: curcumin 10 µM, ibuprofen 20 µM.
Where [6] appears, read: Human Volunteer 1, single oral dose, ibuprofen 50 mg (curcumin 200 mg, phosphatidylcholine 400 mg where included), 105 min after dosing.
Setting [7] is: Human Volunteer 2, single oral dose, ibuprofen 40 mg (curcumin 200 mg, phosphatidylcholine 400 mg where included), 105 min after dosing.

Regarding `COc1cc(/C=C/C(=O)CC(=O)/C=C/c2ccc(O)c(OC)c2)ccc1O` [Curcumin], the “inhibition of PGE2 formation” value is “did not inhibit PGE2 formation” in data set [1] (curcumin 3 µM, ibuprofen 4 µM) and “no detectable inhibition” in data set [1] (setting [5]). The “inhibition of PGE2 compared with 6-keto PGF1α formation (FIG. 1)” value in data set [1] is “inhibited PGE2 more potently than 6-keto PGF1α”. Also, in the data set with IL-1β, the IC50 (as a rule, the midpoint of a concentration-inhibition curve) turned out to be 14 µM. Besides, in the data set on TNF-α [2] (curcumin 10 µM co-incubated with ibuprofen 20 µM), the “suppression of ibuprofen-induced stimulation of TNF-α” value is “suppressed the deleterious stimulation of TNF-α”.
On to `CC(C)Cc1ccc(C(C)C(=O)O)cc1` (stereo not shown) [Ibuprofen], for which the “incidence of gastric ulcers” value with gastric ulcers is 22.9%. In addition, the “increase in TNF-α after ibuprofen dosing” value in the data set on TNF-α [3] was 3.5 fold. The “PGE2 (% inhibition)” value in the data set on PGE2 (Human Volunteer 1, single oral dose ibuprofen 100 mg, SE in parentheses) is reported as 71 % inhibition; in the data set on PGE2 (Human Volunteer 1, single oral dose ibuprofen 400 mg, SE in parentheses) it was 88 (2) % inhibition; with PGE2 (Human Volunteer 1, single oral dose ibuprofen 400 mg, SE in parentheses, listed as ibuprofen), “about 90 % inhibition”; in the data set with PGE2 (Human Volunteer 1, single oral dose, ibuprofen 50 mg (curcumin 200 mg, phosphatidylcholine 400 mg where included), blood 105 min after dosing, SE of 3 measurements in parentheses), 56 (3) % inhibition; in the data set with PGE2 (Human Volunteer 2, single oral dose, ibuprofen 40 mg (curcumin 200 mg, phosphatidylcholine 400 mg where included), blood 105 min after dosing, SE in parentheses), 29 % inhibition. For the same compound, the “6-keto PGF1α (% inhibition)” value was 61 (6) % inhibition with 6-keto PGF1α (Human Volunteer 1, ibuprofen 50 mg (curcumin 200 mg, phosphatidylcholine 400 mg where included)) and 35 % inhibition with 6-keto PGF1α (Human Volunteer 2, ibuprofen 40 mg (curcumin 200 mg, phosphatidylcholine 400 mg where included)). Moreover, the “inhibition of PGE2 formation” value in data set [1] (curcumin 3 µM, ibuprofen 4 µM) was “did not inhibit PGE2 formation”; in data set [1] (setting [5]), 38%. In addition, the “inhibition of PGE2 compared with 6-keto PGF1α formation (FIG. 1)” value in data set [1] is “inhibited the formation of both the prostanoids PGE2 and 6-keto PGF1α, to about the same extent”. The “Plasma ibuprofen (ug/ml)” value is listed as 3.0 (0.5) ug/ml in data set [4] (Human Volunteer 1, single oral dose ibuprofen 100 mg); 44.0 (3.0) ug/ml in data set [4] (Human Volunteer 1, single oral dose ibuprofen 400 mg); 1.7 (0.15) ug/ml in data set [4] (setting [6]); 0.42 (0.06) ug/ml in data set [4] (setting [7]). Besides, the “Plasma ibuprofen” value in data set [4] (Human Volunteer 1, single oral dose ibuprofen 100 mg, listed as ibuprofen) came out at 3.0 µg/mL. Further, the concentration at 105 min amounted to 1700 ng/mL in data set [4] (setting [6]) and 420 ng/mL in data set [4] (setting [7]). For the same compound, the “stimulation of TNF-α” value with TNF-α [2] (ibuprofen 20 µM and 100 µM alone) is on record as “dose-dependent stimulation of TNF-α”.
